Assay results reported in publication PMC9272937, “Anti-breast cancer sinomenine derivatives via mechanisms of apoptosis induction and metastasis reduction” (Journal of Enzyme Inhibition and Medicinal Chemistry, 2022).

Legend:
[1] = tested on: human lung cancer cell line A549; assay: CCK-8 antiproliferative assay, A549; type: cell-based; conditions: Homo sapiens, A549; CCK-8, 48 h, mean ± SD of three experiments
Description: (§1) The antiproliferative activities of target compounds were examined by CCK-8 assay in three cancer cells (human lung cancer cell line A549, human mammary gland tumour cell line MCF-7 and human TNBC cell line MDA-MB-231) and one normal cell (human normal breast cell line MCF10A). All cell lines were sourced from KeyGEN Biotech, […], China, and a standard DMEM medium was applied to all cell cultures then subjected to 24 h incubation at 37 °C in a humidified environment with 5% CO2. After that logarithmic growing cells were plated on 96-well plates with 8,000 cells per well in a […] medium for 24 h incubation at 37 °C with 5% CO2. The DMEM medium with bovine serum was removed from each well. Then, prerequisite target compounds and positive controls were added to different cell lines in a predetermined concentration regiment for 48 h culture.

[2] = tested on: human mammary gland tumour cell line MCF-7; assay: CCK-8 antiproliferative assay, MCF-7; type: cell-based; conditions: for IC50: Homo sapiens, MCF7, 48 h, read-out: IC50 MCF-7; for SI MCF-7 (selectivity index): SI = IC50(MCF-10A)/IC50(MCF-7)
Description: as §1

[3] = tested on: human TNBC cell line MDA-MB-231; assay: CCK-8 antiproliferative assay, MDA-MB-231; type: cell-based; conditions: for IC50: Homo sapiens, MDA-MB-231, 48 h, read-out: IC50 MDA-MB-231; for SI MDA-MB-231 (selectivity index): SI = IC50(MCF-10A)/IC50(MDA-MB-231)
Description: as §1

[4] = tested on: human normal breast cell line MCF10A; assay: CCK-8 assay, normal cells MCF10A; type: cell-based; conditions: MCF-10A, CCK-8, 48 h, mean ± SD of three experiments
Description: as §1

[5] = Griess assay, NO-releasing capacity; conditions: 10^−4 mol/l compound, L-cysteine, 37 °C, 15-180 min
Description: The NO-releasing capacity of each target compound was determined by the colorimetric method under the instructions of the manufacturer. Preparation of standard curves of 0, 1.56, 3.13, 6.25, 12.5, 25, 50 and 100 μmol/L nitrite nitrogen series standard solution was prepared. 50 μL to 96-well plate was added respectively and then mixed with 50 μL Griess I and Griess II; the absorption value was measured at 540 nm wavelength. A standard curve was drawn from the obtained data. Compounds were formulated into 10^−4 mol/l with PBS (pH = 7.4) and pharmaceutical DMSO. The newly formulated L-cysteine solution 100 μL ([…]) was added and incubated at 37 °C for 15, 30, 45, 60, 90, 120, 150 and180 min, respectively. Griess I and II recovered to room temperature, 50 μL of compounds 7A–E(a–c) were added respectively into the 96-well plate, and then 50 μL of Griess I and 50 μL of Griess II were added in sequence, with the absorbance tested at 540 nm. The amount of NO released was then calculated according to the standard curve.

Row | SMILES | IC50 [1] | IC50 [2] | SI MCF-7 (selectivity index) [2] | IC50 [3] | SI MDA-MB-231 (selectivity index) [3] | IC50 [4] | NO peak releasing [5]
1 | COC1=CC2[C@H]3Cc4ccc(OC)c(OC(=O)CCC(=O)OCCCCOc5no[n+]([O-])c5S(=O)(=O)c5ccccc5)c4[C@@]2(CCN3C)CC1=O (stereo partly drawn) [7Ca, 4–(4-((4-(((4bs,9R)-3,7-Dimethoxy-11-methyl-6-oxo-6,8a,9,10-tetrahydro-5H-9,4b-(epiminoethano)phenanthren-4-yl)oxy)-4-oxobutanoyl)oxy)butoxy)-3-(phenylsulfonyl)-1,2,5-oxadiazole 2-oxide] | 2.97 ± 0.14 µM | 2.55 ± 0.14 µM | 15.95 | 2.26 ± 0.19 µM | 18 | 40.7 ± 2.79 µM | exceeding 40 μmol/L
2 | COC1=CC2[C@H]3Cc4ccc(OC)c(OC(=O)CCC(=O)OCCCCCOc5no[n+]([O-])c5S(=O)(=O)c5ccccc5)c4[C@@]2(CCN3C)CC1=O (stereo partly drawn) [7Da, 4-((5-((4-(((4bs,9R)-3,7-Dimethoxy-11-methyl-6-oxo-6,8a,9,10-tetrahydro-5H-9,4b-(epiminoethano)phenanthren-4-yl)oxy)-4-oxobutanoyl)oxy)pentyl)oxy)-3-(phenylsulfonyl)-1,2,5-oxadiazole 2-oxide] | 2.79 ± 0.07 µM | 1.8 ± 0.11 µM | 13.74 | 0.92 ± 0.01 µM | 26.89 | 24.7 ± 1.67 µM | exceeding 40 μmol/L
3 | COC1=CC2[C@H]3Cc4ccc(OC)c(OC(=O)c5ccccc5C(=O)OCCCCCOc5no[n+]([O-])c5S(=O)(=O)c5ccccc5)c4[C@@]2(CCN3C)CC1=O (stereo partly drawn) [7Dc, 4-((5-((2-((((4bs,9R)-3,7-Dimethoxy-11-methyl-6-oxo-6,8a,9,10-tetrahydro-5H-9,4b-(epiminoethano)phenanthren-4-yl)oxy)carbonyl)benzoyl)oxy)pentyl)oxy)-3-(phenylsulfonyl)-1,2,5-oxadiazole 2-oxide] | 1.63 ± 0.05 µM | 2.18 ± 0.1 µM | 9.11 | 1.88 ± 0.09 µM | 10.56 | 19.9 ± 1.43 µM | exceeding 40 μmol/L
